According to patent US6984718B2, “Fluorescence dyes and their applications for whole-cell fluorescence screening assays for caspases, peptidases, proteases and other enzymes and the use thereof” (Cytovia, Inc., priority 1998, dated 2006):

Columns and labels:
Jurkat T leukemia cells = assay: Whole cell assay: cleavage of caspase-3 substrate in apoptotic Jurkat cells, flow cytometry; type: cell-based, human
Method: Jurkat T leukemia cells were grown in RPMI 1640 media (Life Technologies, Inc.) +10% FCS (Sigma Chemical Company) in a 5% CO2-95% humidity incubator at 37° C., and maintained at a cell density between 4 and 8×10^5 cells/ml. Cells were harvested at 200×g and resuspended at 1×10^6 cells/ml into RPMI 1640 media containing 10% FCS and 1 ml each were dispensed in 2-wells of a 6-well plate. The apoptosis inducer staurosporine was added at 0.5 μg/ml concentration and the plate was incubated for 2 hrs at 37° C. in a 5% CO2-95% humidity incubator. Cells were pelleted and incubated with 50 μM of substrate Ac-DEVD-R110-TFB (SEQ ID NO:5) for 2 hrs at 37° C. in serum-free RPMI medium. 500 μl PBS was added and samples were analyzed by flow cytometry. All flow cytometry analyses were performed on a FACScalibur (Becton Dickinson) using CellQuest analysis software.
The apoptosis inducer anti-Fas antibody (CH-11; MBL) was added at 200 ng/ml concentration and the plate was incubated for 2hrs at 37° C. in a 5% CO2-95% humidity incubator. Cells were pelleted and incubated with 50 μM of substrate Ac-DEVD-R110-TFB (SEQ ID NO:5) for 2 hrs at 37° C. in serum-free RPMI medium. 500 μl PBS was added and samples were analyzed by flow cytometry.
A pan-caspase inhibitor cbz-Val-Asp-fink(see W099/18781) was added to one of the wells. The apoptosis inducer staurosporine was added with and without the caspase inhibitor at 0.5 μg/ml concentration and the plate was incubated for 2 hrs at 37° C. in a 5% CO2-95% humidity incubator. Cells were pelleted and incubated with 50 μM of substrate Ac-DEVD-R110-TFB (SEQ ID NO:5) for 2hr at 37° C. in serum-free RPMI medium. 500 μl PBS was added and samples were analyzed by flow cytometry.

recombinant caspase-3 = target: T1, recombinant caspase-3 (Homo sapiens, UniProt P42574); assay: Cleavage of fluorogenic substrate by recombinant caspase-3, cell-free; type: biochemical
T1 sequence (P42574 29-175 limits assumed): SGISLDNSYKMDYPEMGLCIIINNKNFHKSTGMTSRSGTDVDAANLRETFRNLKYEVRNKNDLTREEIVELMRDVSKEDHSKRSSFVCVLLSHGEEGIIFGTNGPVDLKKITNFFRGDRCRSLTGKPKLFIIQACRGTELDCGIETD
T1 sequence (P42574 176-277 limits assumed): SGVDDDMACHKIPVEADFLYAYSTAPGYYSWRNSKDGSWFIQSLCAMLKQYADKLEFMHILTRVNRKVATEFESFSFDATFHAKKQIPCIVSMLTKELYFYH
Method: The cleavage of N-(Ac-DEVD)-N′-(2,3,4,5-tetrafluorobenzoyl)-R110 (SEQ ID NO:5) (Ac-DEVD-R110-TFB) (SEQ ID NO:5) by caspase-3 was tested in a cell-free assay using recombinant enzyme. 10 μM of substrate was incubated with recombinant caspase-3 for 3 hours at 37° C. Control reactions included one sample with no enzyme (Background value) and one sample incubated in the presence of the caspase inhibitor, Ac-DEVD-CHO (SEQ ID NO:5) (Non-specific value).

aminopeptidases = assay: Cleavage of substrate by HL-60 cell lysate (aminopeptidases); type: biochemical; settings: 37° C.; for fluorescent signal after incubation with cell lysate: HL-60 cell lysate
Method: N-Gly-R110-PFB was incubated with a lysate made from HL-60 cells, and the amount of fluorescence was measured at various times after incubation at 37° C. Parallel samples were run using the control substrate, N-Cbz-Gly-R110-PFB.

HL-60 cells = assay: Staining of whole, live HL-60 cells with aminopeptidase substrate; type: cell-based; settings: 10 μM, 2 hours at 37° C.
Method: HL-60 cells (about 2×10^6) were incubated with 10 μM of N-Gly-R110-PFB for 2 hours at 37° C. in a CO2 incubator. Parallel samples were similarly incubated with the amino terminal-blocked compound, N-Cbz-Gly-R110. At the end of the incubation, the cells were harvested by centrifugation and resuspended in 50 μL of fresh medium without substrate. Aliquots of each cell suspension were placed in microslides and viewed on a Nikon inverted microscope with epifluorescent illumination.

[1] = Fluorescence standard curve of dye under cell-free conditions (fluorescent microplate reader); type: physicochemical
Method: A standard curve consisting of 7 concentrations of N-pentafluorobenzoyl-Rhodamine 110 (0.5 to 20 μM) in a volume of 100 μL was prepared. The fluorescence of each concentration was measured (in triplicate) using a BioTek fluorescent microplate reader, and the signal was plotted as a function of dye concentration. The N-pentafluorobenzoyl-Rhodamine 110 curve was compared to a standard curve of R110 fluorescence prepared in the same way.

HL-60 lysates = assay: Cleavage of Z-DEVD-R110-PFB by HL-60 lysates; type: biochemical

CC(=O)N[C@@H](CC(=O)O)C(=O)N[C@@H](CCC(=O)O)C(=O)N[C@H](C(=O)N[C@@H](CC(=O)O)C(=O)Nc1ccc2c(c1)Oc1cc(NC(=O)c3cc(F)c(F)c(F)c3F)ccc1C21OC(=O)c2ccccc21)C(C)C (stereo partly drawn) [Ac-DEVD-R110-TFB, N-(Ac-Asp-Glu-Val-Asp)-N′-(2,3,4,5-tetrafluorobenzoyl)-Rhodamine 110]
cleavage of substrate under whole cell assay conditions, anti-Fas antibody induced apoptosis (Jurkat T leukemia cells; anti-Fas antibody 200 ng/ml 2 hrs, then 50 μM substrate 2 hrs at 37° C.): cleavage
cleavage of substrate under whole cell assay conditions, staurosporine induced apoptosis (Jurkat T leukemia cells; staurosporine 0.5 μg/ml 2 hrs, then 50 μM substrate 2 hrs at 37° C.): cleavage
increase in fluorescence over background and non-specific values (recombinant caspase-3; 10 μM substrate, recombinant caspase-3, 3 hours at 37° C.): roughly 50 fold

O=C(CNC(=O)OCc1ccccc1)Nc1ccc2c(c1)Oc1cc(NC(=O)c3c(F)c(F)c(F)c(F)c3F)ccc1C21OC(=O)c2ccccc21 (stereo not drawn) [N-Cbz-Gly-R110-PFB, N-(Z-Gly)-N′-pentafluorobenzoyl-Rhodamine 110]
fluorescent signal after incubation with cell lysate (aminopeptidases): did not give a signal
fluorescent signal after incubation with buffer only (no lysate) (aminopeptidases): did not give a signal
fluorescence of whole cells incubated with substrate (HL-60 cells): did not fluoresce above background levels

Br.NCC(=O)Nc1ccc2c(c1)Oc1cc(NC(=O)c3c(F)c(F)c(F)c(F)c3F)ccc1C21OC(=O)c2ccccc21 (stereo not drawn) [N-Gly-R110-PFB, N-Gly-N′-pentafluorobenzoyl-Rhodamine 110 HBr]
fluorescent signal after incubation with cell lysate (aminopeptidases): strong fluorescent signal
fluorescent signal after incubation with buffer only (no lysate) (aminopeptidases): very weak fluorescent signal
fluorescence of whole cells incubated with substrate (HL-60 cells): strong, homogeneously distributed, yellowish-green fluorescence

Nc1ccc2c(c1)Oc1cc(NC(=O)c3c(F)c(F)c(F)c(F)c3F)ccc1C21OC(=O)c2ccccc21 (stereo not drawn) [N-pentafluorobenzoyl-Rhodamine 110, N-Pentafluorobenzoyl-Rhodamine 110]
fluorescence compared to Rhodamine 110 ([1]; cell-free conditions): weaker fluorescent dye compared to Rhodamine 110

Cl.N=c1ccc2c(-c3ccccc3C(=O)O)c3ccc(N)cc3oc-2c1 [Rhodamine 110, reference compound]
higher fluorescence of R110 than N-pentafluorobenzoyl-Rhodamine 110 ([1]; each concentration tested, 0.5 to 20 μM, cell-free): 20 to 50 fold

CC(C)[C@H](NC(=O)[C@H](CCC(=O)O)NC(=O)[C@H](CC(=O)O)NC(=O)OCc1ccccc1)C(=O)N[C@@H](CC(=O)O)C(=O)Nc1ccc2c(c1)Oc1cc(NC(=O)c3c(F)c(F)c(F)c(F)c3F)ccc1C21OC(=O)c2ccccc21 (stereo partly drawn) [Z-DEVD-R110-PFB, N-(Z-Asp-Glu-Val-Asp)-N′-pentafluorobenzoyl-Rhodamine 110]
cleavage by lysate from apoptotic HL-60 cells (HL-60 lysates): readily cleaved
increase in fluorescence over the uncleaved substrate (recombinant caspase-3; recombinant caspase-3): greater than 10 fold

CC(C)[C@H](NC(=O)OCc1ccccc1)C(=O)NC(CC(=O)O)C(=O)CF (stereo partly drawn) [cbz-Val-Asp-fink]
inhibition of staurosporine induced cleavage of Ac-DEVD-R110-TFB in whole cells (Jurkat T leukemia cells; staurosporine 0.5 μg/ml, 2 hrs): can be inhibited by the pan-caspase inhibitor

CN[C@@H]1C[C@H]2O[C@@](C)([C@@H]1OC)n1c3ccccc3c3c4c(c5c6ccccc6n2c5c31)C(=O)NC4 [staurosporine]
induction of apoptosis read out as cleavage of Ac-DEVD-R110-TFB (Jurkat T leukemia cells; inducer at 0.5 μg/ml, 2 hrs): leads to cleavage of the caspase-3 substrate
